{"source": "patent US8959984B2", "about": "“Proteome-wide quantification of small molecule binding to cellular target proteins” (priority 2007, dated 2015)", "key": {"DYRK1A": {"target": "T1, DYRK1A (Homo sapiens, UniProt Q13627)", "T1 construct": "endogenous in cells; host or cells: HeLa S3", "test": "binding to immobilized V16742 (IVA1/IVA2, HeLa lysate, MS)"}, "TLK1": {"target": "T2, TLK1 (Homo sapiens, UniProt Q9UKI8)", "T2 construct": "endogenous in cells; host or cells: HeLa S3", "T2 sequence (Q9UKI8 1-766)": "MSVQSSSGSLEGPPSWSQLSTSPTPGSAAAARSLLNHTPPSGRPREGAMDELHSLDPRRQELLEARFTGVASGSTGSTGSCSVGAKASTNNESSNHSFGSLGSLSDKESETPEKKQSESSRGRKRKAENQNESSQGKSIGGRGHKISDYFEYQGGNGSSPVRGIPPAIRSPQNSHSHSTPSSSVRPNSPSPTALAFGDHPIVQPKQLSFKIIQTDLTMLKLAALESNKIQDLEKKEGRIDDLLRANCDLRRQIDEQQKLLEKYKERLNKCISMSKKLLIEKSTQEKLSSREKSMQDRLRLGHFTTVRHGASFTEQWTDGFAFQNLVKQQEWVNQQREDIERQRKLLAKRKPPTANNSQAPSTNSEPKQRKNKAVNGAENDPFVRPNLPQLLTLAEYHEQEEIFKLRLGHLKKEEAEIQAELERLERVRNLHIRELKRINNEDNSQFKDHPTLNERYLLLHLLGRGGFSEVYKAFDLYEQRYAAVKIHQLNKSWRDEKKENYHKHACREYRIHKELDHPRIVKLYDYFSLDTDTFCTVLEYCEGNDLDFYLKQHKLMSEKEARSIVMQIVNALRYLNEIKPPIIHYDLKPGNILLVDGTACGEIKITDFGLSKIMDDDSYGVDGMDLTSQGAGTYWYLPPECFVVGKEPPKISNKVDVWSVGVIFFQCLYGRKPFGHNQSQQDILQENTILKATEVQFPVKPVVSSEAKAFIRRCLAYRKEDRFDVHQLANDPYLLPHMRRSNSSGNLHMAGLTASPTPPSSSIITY", "test": "binding to immobilized V16742 (IVA1/IVA2, HeLa lysate, MS)"}, "GSK3A": {"target": "GSK3A (Homo sapiens, UniProt P49840)", "sequence (P49840 whole entry)": "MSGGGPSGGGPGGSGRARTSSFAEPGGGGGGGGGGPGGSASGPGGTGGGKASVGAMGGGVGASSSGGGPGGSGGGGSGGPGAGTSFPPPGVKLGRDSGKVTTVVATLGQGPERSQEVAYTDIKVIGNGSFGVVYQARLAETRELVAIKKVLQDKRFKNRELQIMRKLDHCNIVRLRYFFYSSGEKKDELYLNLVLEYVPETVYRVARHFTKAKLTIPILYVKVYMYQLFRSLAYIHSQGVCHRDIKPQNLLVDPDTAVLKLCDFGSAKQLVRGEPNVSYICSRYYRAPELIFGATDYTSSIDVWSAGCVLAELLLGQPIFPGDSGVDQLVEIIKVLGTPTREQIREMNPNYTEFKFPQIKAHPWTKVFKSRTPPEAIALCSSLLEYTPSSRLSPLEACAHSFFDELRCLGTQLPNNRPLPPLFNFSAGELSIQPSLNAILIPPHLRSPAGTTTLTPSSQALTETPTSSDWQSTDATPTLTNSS", "test": "binding to immobilized V16742 (IVA1/IVA2, HeLa lysate, MS)"}, "CaMK2d (CAMK2D)": {"target": "CaMK2d (CAMK2D) (Homo sapiens, UniProt Q13557)", "sequence (Q13557 whole entry)": "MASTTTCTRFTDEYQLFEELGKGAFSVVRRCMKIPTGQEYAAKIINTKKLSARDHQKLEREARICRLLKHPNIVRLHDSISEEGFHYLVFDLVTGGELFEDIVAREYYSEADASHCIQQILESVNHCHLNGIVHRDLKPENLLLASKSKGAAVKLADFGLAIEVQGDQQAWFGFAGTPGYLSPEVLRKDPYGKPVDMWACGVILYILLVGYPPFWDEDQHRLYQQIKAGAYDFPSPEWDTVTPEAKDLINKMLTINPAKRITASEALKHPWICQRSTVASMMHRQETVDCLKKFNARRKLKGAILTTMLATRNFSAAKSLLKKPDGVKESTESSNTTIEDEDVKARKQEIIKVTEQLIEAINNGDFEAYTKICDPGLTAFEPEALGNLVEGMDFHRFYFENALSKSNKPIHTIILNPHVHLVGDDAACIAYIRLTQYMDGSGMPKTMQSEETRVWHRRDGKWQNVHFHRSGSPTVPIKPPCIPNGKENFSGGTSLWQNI"}, "MNK1 (MKNK1)": {"target": "MNK1 (MKNK1) (Homo sapiens, UniProt Q9BUB5)", "sequence (Q9BUB5 whole entry)": "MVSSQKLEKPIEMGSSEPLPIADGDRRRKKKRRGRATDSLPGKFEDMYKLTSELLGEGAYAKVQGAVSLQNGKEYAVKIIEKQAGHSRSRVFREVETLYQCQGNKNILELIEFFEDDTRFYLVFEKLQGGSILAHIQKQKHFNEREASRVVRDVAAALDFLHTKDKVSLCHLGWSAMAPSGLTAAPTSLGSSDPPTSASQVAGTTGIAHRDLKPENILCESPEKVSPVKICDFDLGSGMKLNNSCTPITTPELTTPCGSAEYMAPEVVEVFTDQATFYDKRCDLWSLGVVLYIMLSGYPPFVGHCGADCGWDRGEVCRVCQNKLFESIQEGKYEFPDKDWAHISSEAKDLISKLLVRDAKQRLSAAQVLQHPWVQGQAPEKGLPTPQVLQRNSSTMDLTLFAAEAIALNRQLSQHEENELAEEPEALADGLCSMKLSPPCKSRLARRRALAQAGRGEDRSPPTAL"}, "[1]": {"target": "p38a (MAPK14, IPI00221141) (Homo sapiens, UniProt Q16539)", "sequence (Q16539 1-360 isoform Q16539-2)": "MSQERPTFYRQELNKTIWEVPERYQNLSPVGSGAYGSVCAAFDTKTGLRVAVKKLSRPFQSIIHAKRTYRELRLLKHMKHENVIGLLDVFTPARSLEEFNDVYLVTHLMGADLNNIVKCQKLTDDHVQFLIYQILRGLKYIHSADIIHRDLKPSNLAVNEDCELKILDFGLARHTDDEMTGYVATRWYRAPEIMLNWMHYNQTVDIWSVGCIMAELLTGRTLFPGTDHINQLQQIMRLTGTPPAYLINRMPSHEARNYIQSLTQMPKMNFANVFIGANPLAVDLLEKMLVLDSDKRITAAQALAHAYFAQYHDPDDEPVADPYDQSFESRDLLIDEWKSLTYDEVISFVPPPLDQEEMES", "test": "gefitinib competition against AX14596 beads (HeLa lysate, SILAC MS)", "format": "binding"}, "[2]": {"conditions": "average of two experiments, read-out: Kd Avg"}}, "note": "pKd: −log10 of the molar value. Where two headings read alike, the source gives them in different places."}
{"smiles": "CC(C)n1c(=O)ccc2cnc(Nc3ccc(OCCN)cc3)nc21", "note": "[V16742]", "values": [{"measurement": "Percent bound at various 16742 conc", "setting": "DYRK1A; Experiment 1, 1.87 μM 16742", "result": 5.75, "unit": "%"}, {"measurement": "Percent bound at various 16742 conc", "setting": "DYRK1A; Experiment 1, 8.74 μM 16742", "result": 14.82, "unit": "%"}, {"measurement": "Percent bound at various 16742 conc", "setting": "DYRK1A; Experiment 1, 52 μM 16742", "result": 52.16, "unit": "%"}, {"measurement": "pKd", "setting": "DYRK1A; Experiment 1, read-out: Kd", "result": 4.32}, {"measurement": "Percent bound at various 16742 conc", "setting": "DYRK1A; Experiment 2, 1.87 μM 16742", "result": 1.08, "unit": "%"}, {"measurement": "Percent bound at various 16742 conc", "setting": "DYRK1A; Experiment 2, 8.74 μM 16742", "result": 3.76, "unit": "%"}, {"measurement": "Percent bound at various 16742 conc", "setting": "DYRK1A; Experiment 2, 52 μM 16742", "result": 28.11, "unit": "%"}, {"measurement": "pKd", "setting": "DYRK1A; Experiment 2, read-out: Kd", "result": 3.86}, {"measurement": "pKd", "setting": "DYRK1A; [2]", "result": 4.03}, {"measurement": "Percent bound at various 16742 conc", "setting": "TLK1; Experiment 1, 1.87 μM 16742", "result": 1.34, "unit": "%"}, {"measurement": "Percent bound at various 16742 conc", "setting": "TLK1; Experiment 1, 8.74 μM 16742", "result": 2.39, "unit": "%"}, {"measurement": "Percent bound at various 16742 conc", "setting": "TLK1; Experiment 1, 52 μM 16742", "result": 49.12, "unit": "%"}, {"measurement": "pKd", "setting": "TLK1; Experiment 1, read-out: Kd", "result": 4.19}, {"measurement": "Percent bound at various 16742 conc", "setting": "TLK1; Experiment 2, 1.87 μM 16742", "result": 0.76, "unit": "%"}, {"measurement": "Percent bound at various 16742 conc", "setting": "TLK1; Experiment 2, 8.74 μM 16742", "result": 1.97, "unit": "%"}, {"measurement": "Percent bound at various 16742 conc", "setting": "TLK1; Experiment 2, 52 μM 16742", "result": 31.56, "unit": "%"}, {"measurement": "pKd", "setting": "TLK1; Experiment 2, read-out: Kd", "result": 3.92}, {"measurement": "pKd", "setting": "TLK1; [2]", "result": 4.03}]}
{"smiles": "CC(C)n1c(=O)ccc2cnc(Nc3ccc(OCCN)cc3)nc21", "note": "[compound 16742]", "values": [{"measurement": "Percent bound at 1.87 μM 16742 conc", "setting": "GSK3A; EXPERIMENT 1", "result": 7.34, "unit": "%"}, {"measurement": "Percent bound at 8.74 μM 16742 conc", "setting": "GSK3A; EXPERIMENT 1", "result": 35.37, "unit": "%"}, {"measurement": "Percent bound at 52 μM 16742 conc", "setting": "GSK3A; EXPERIMENT 1", "result": 84.48, "unit": "%"}, {"measurement": "pKd", "setting": "GSK3A; EXPERIMENT 1, read-out: Kd", "result": 4.84}, {"measurement": "Percent bound at 1.87 μM 16742 conc", "setting": "GSK3A; EXPERIMENT 2", "result": 4.30, "unit": "%"}, {"measurement": "Percent bound at 8.74 μM 16742 conc", "setting": "GSK3A; EXPERIMENT 2", "result": 29.09, "unit": "%"}, {"measurement": "Percent bound at 52 μM 16742 conc", "setting": "GSK3A; EXPERIMENT 2", "result": 78.29, "unit": "%"}, {"measurement": "pKd", "setting": "GSK3A; EXPERIMENT 2, read-out: Kd", "result": 4.73}, {"measurement": "pKd", "setting": "GSK3A; read-out: Kd Avg", "result": 4.78}]}
{"smiles": "COc1cc2ncnc(Nc3ccc(F)c(Cl)c3)c2cc1OCCCN1CCOCC1", "note": "[gefitinib]", "values": [{"measurement": "rAVERAGE (10 nM/0 nM Gef.)", "setting": "CaMK2d (CAMK2D)", "result": 0.89}, {"measurement": "rAVERAGE (100 nM/0 nM Gef.)", "setting": "CaMK2d (CAMK2D)", "result": 1.11}, {"measurement": "rAVERAGE (1000 nM/0 nM Gef.)", "setting": "CaMK2d (CAMK2D)", "result": 0.91}, {"measurement": "rAVERAGE (10000 nM/0 nM Gef.)", "setting": "CaMK2d (CAMK2D)", "result": 0.93}, {"measurement": "rAVERAGE (10 nM/0 nM Gef.)", "setting": "MNK1 (MKNK1)", "result": 0.76}, {"measurement": "rAVERAGE (100 nM/0 nM Gef.)", "setting": "MNK1 (MKNK1)", "result": 1.00}, {"measurement": "rAVERAGE (1000 nM/0 nM Gef.)", "setting": "MNK1 (MKNK1)", "result": 0.73}, {"measurement": "rAVERAGE (10000 nM/0 nM Gef.)", "setting": "MNK1 (MKNK1)", "result": 0.37}, {"measurement": "rAVERAGE (10 nM/0 nM Gef.)", "setting": "[1]", "result": 0.88}, {"measurement": "rAVERAGE (100 nM/0 nM Gef.)", "setting": "[1]", "result": 0.97}, {"measurement": "rAVERAGE (1000 nM/0 nM Gef.)", "setting": "[1]", "result": 0.97}, {"measurement": "rAVERAGE (10000 nM/0 nM Gef.)", "setting": "[1]", "result": 0.64}]}
